In patent US11202787B2, “Use of ACTH in assessment and prophylactic treatment of hypokalemia associated with glucocorticoid receptor modulator treatment of Cushing's syndrome patients” (Corcept Therapeutics, Inc., priority 2018, dated 2021):

Columns and labels:
Type in all cases: in vivo, human
ACTH = ACTH levels during mifepristone treatment of Cushing's syndrome patients; conditions: for ACTH Visit Change Values from Baseline / Ratio of ACTH Visit Change Values from Baseline per Baseline (ACTH_CHG/ACTH Baseline): Mean ± SD
Excerpt: The term “measuring the level,” in the context of cortisol, ACTH, mifepristone, or other compounds, refers to determining, detecting, or quantitating the amount, level, or concentration of, for example, cortisol, ACTH, mifepristone, or other compound in a sample obtained from a subject. Plasma or serum samples are often used for measuring ACTH or cortisol level.
The types of samples that are suitable for ACTH determination can be serum, plasma, saliva, urine, or any other biological fluid taken from a subject. In preferred embodiments, the sample is a serum sample, or is a plasma sample. The level of ACTH can be measured using various methods, including but not limited to, immunoassays, e.g., competitive immunoassay, radioimmunoassay (MA), immunofluorometric enzyme assay, and ELISA; competitive protein-binding assays; liquid chromatography (e.g., HPLC); and mass spectrometry, e.g., high-performance liquid chromatography/triple quadrupole-mass spectrometry (LC-MS/MS). Commercial kits for measuring ACTH are readily available, e.g., from Mayo clinic (Test ID: ACTH), Siemens Healthcare Global (Immulite® 2000 ACTH assay), and Roche Molecular Diagnostics (Catalog No. 03255751190). In preferred embodiments, ACTH levels are measured using a radioimmunoassay (RIA), most preferable a two-site MA, such as performed by Quest Diagnostics (Secaucus, N.J. 07094).
(§1) The Cushing's syndrome study reported herein was conducted in accordance with the Declaration of Helsinki and Good Clinical Practice (GCP) according to International Conference on Harmonization (ICH) guidelines.
(§2) Dosing Schedule Dosing was started with 300 mg of mifepristone once per day for 14 days. After 14 days, if no clinical improvement was seen but the drug was well tolerated, the dose of mifepristone was increased to 600 mg once per day. After 4 weeks of dosing at 600 mg once per day, if no clinical improvement was seen but the drug was well tolerated, the dose was increased to 900 mg once per day. Dose escalation was based on weight with the maximum dose no higher than 20 mg/kg/day. […] After 4 weeks of dosing at 900 mg once per day, if no clinical improvement was seen but the drug was well tolerated, the dose was increased to 1200 mg once per day. Study duration was 24 weeks.
(§3) Potassium levels were obtained on every subject at either screening or the pre-drug administration baseline visit, and then also at every scheduled post-baseline visit. Potassium levels post-baseline were therefore obtained as early as day 7 and through day 210 (week 30 was the last visit and was the 6 week follow-up visit). ACTH, and cortisol were measured at six visits (week 2 (day 14), week 6 (day 42), week 10 (day 70), week 16 (day 112), and week 24 (day 168) week 6 follow-up (day 210)).

cortisol = assay: 24-hour urine cortisol during mifepristone treatment of Cushing's syndrome patients; conditions: Mean ± SD
Experimental: as §1, §2, §3

[1] = system: subjects in an Alzheimer's study; assay: Alzheimer's study: hypokalemia
Excerpt: Clinically meaningful hypokalemia (≤3.1) has been reported in 16 of 821 (1.9%) mifepristone treated subjects (12 in completed double blind PMD trials, and 4 in a completed Alzheimer's trial), and in 5 of 626 (0.8%) placebo treated subjects in completed PMD trials.

[2] = Day 210 (6 week follow-up), Hypokalemic
[3] = Day 210 (6 week follow-up), Non-Hypokalemic

In the case of CC#C[C@]1(O)CC[C@H]2[C@@H]3CCC4=CC(=O)CCC4=C3[C@@H](c3ccc(N(C)C)cc3)C[C@@]21C [mifepristone, 11β-(4-dimethylaminophenyl)-17β-hydroxy-17α-(1-propynyl)-estra-4,9-dien-3-one], the “ACTH increase during mifepristone treatment” value (ACTH; 43 subjects with Cushing's disease) is reported as “about two-fold”, the “ACTH Visit Change Values from Baseline” value (ACTH; Day 14, Hypokalemic) is reported as 60.8 ± 99.6 (8) ng/L and the “Ratio of ACTH Visit Change Values from Baseline per Baseline (ACTH_CHG/ACTH Baseline)” value (ACTH; Day 14, Hypokalemic) is reported as 1.87 ± 1.32 (8). The “ACTH Visit Change Values from Baseline” value (ACTH; Day 14, Non-Hypokalemic) was 30.6 ± 26.9 (38) ng/L, the “Ratio of ACTH Visit Change Values from Baseline per Baseline (ACTH_CHG/ACTH Baseline)” value (ACTH; Day 14, Non-Hypokalemic) was 1.77 ± 0.72 (38) and the “ACTH Visit Change Values from Baseline” value (ACTH; Day 42, Hypokalemic) was 86.3 ± 58.2 (6) ng/L. The “Ratio of ACTH Visit Change Values from Baseline per Baseline (ACTH_CHG/ACTH Baseline)” value (ACTH; Day 42, Hypokalemic) was 2.50 ± 0.61 (6), the “ACTH Visit Change Values from Baseline” value (ACTH; Day 42, Non-Hypokalemic) was 40.6 ± 54.7 (35) ng/L and the “Ratio of ACTH Visit Change Values from Baseline per Baseline (ACTH_CHG/ACTH Baseline)” value (ACTH; Day 42, Non-Hypokalemic) was 2.02 ± 0.97 (35). For the same molecule, the “ACTH Visit Change Values from Baseline” value (ACTH; Day 70, Hypokalemic) was 211.8 ± 147.5 (6) ng/L, the “Ratio of ACTH Visit Change Values from Baseline per Baseline (ACTH_CHG/ACTH Baseline)” value (ACTH; Day 70, Hypokalemic) was 4.08 ± 2.51 (6) and the “ACTH Visit Change Values from Baseline” value (ACTH; Day 70, Non-Hypokalemic) was 49.2 ± 22.5 (30) ng/L. For the same molecule, the “Ratio of ACTH Visit Change Values from Baseline per Baseline (ACTH_CHG/ACTH Baseline)” value (ACTH; Day 70, Non-Hypokalemic) was 2.06 ± 1.01 (30), the “ACTH Visit Change Values from Baseline” value (ACTH; Day 112, Hypokalemic) was 101.4 ± 159.6 (9) ng/L and the “Ratio of ACTH Visit Change Values from Baseline per Baseline (ACTH_CHG/ACTH Baseline)” value (ACTH; Day 112, Hypokalemic) was 2.53 ± 1.49 (9). The “ACTH Visit Change Values from Baseline” value (ACTH; Day 112, Non-Hypokalemic) was 70.2 ± 82.2 (23) ng/L, the “Ratio of ACTH Visit Change Values from Baseline per Baseline (ACTH_CHG/ACTH Baseline)” value (ACTH; Day 112, Non-Hypokalemic) was 2.47 ± 1.87 (23) and the “ACTH Visit Change Values from Baseline” value (ACTH; Day 168, Hypokalemic) was 151.2 ± 166.5 (5) ng/L. For the same molecule, the “Ratio of ACTH Visit Change Values from Baseline per Baseline (ACTH_CHG/ACTH Baseline)” value (ACTH; Day 168, Hypokalemic) was 3.30 ± 2.54 (5), the “ACTH Visit Change Values from Baseline” value (ACTH; Day 168, Non-Hypokalemic) was 48.2 ± 73.8 (37) ng/L and the “Ratio of ACTH Visit Change Values from Baseline per Baseline (ACTH_CHG/ACTH Baseline)” value (ACTH; Day 168, Non-Hypokalemic) was 2.08 ± 1.31 (37). The “ACTH Visit Change Values from Baseline” value (ACTH; [2]) was 113.7 ± 167.7 (3) ng/L, the “Ratio of ACTH Visit Change Values from Baseline per Baseline (ACTH_CHG/ACTH Baseline)” value (ACTH; [2]) was 1.36 ± 0.46 (3) and the “ACTH Visit Change Values from Baseline” value (ACTH; [3]) was 13.4 ± 34.0 (37) ng/L. The “Ratio of ACTH Visit Change Values from Baseline per Baseline (ACTH_CHG/ACTH Baseline)” value (ACTH; [3]) was 1.33 ± 0.61 (37), the “rise in ACTH levels following an initial increase in mifepristone dose (FIG. 1)” value (ACTH; patients who did not experience hypokalemia) was “about 25 pg/mL” and the “24 Hour Urine Cortisol (nmol/24 hr)/ACTH Ratio Visit Values” (cortisol; Day 42, Hypokalemic) was 26.1 ± 18.4 (6). The “24 Hour Urine Cortisol Visit Change Values from Baseline” value (cortisol; Day 42, Hypokalemic) was 641 ± 3678 (6) nmol/24 hr, the “24 Hour Urine Cortisol Visit Values” (cortisol; Day 42, Hypokalemic) was 4373 ± 5347 (6) nmol/24 hr and the “24 Hour Urine Cortisol (nmol/24 hr)/ACTH Ratio Visit Values” (cortisol; Day 42, Non-Hypokalemic) was 7.9 ± 6.0 (35). For the same molecule, the “24 Hour Urine Cortisol Visit Change Values from Baseline” value (cortisol; Day 42, Non-Hypokalemic) was 329 ± 967 (35) nmol/24 hr, the “24 Hour Urine Cortisol Visit Values” (cortisol; Day 42, Non-Hypokalemic) was 886 ± 1060 (35) nmol/24 hr and the “24 Hour Urine Cortisol (nmol/24 hr)/ACTH Ratio Visit Values” (cortisol; Day 70, Hypokalemic) was 33.5 ± 16.1 (6). The “24 Hour Urine Cortisol Visit Change Values from Baseline” value (cortisol; Day 70, Hypokalemic) was 4856 ± 4805 (6) nmol/24 hr, the “24 Hour Urine Cortisol Visit Values” (cortisol; Day 70, Hypokalemic) was 9132 ± 9321 (6) nmol/24 hr and the “24 Hour Urine Cortisol (nmol/24 hr)/ACTH Ratio Visit Values” (cortisol; Day 70, Non-Hypokalemic) was 17.0 ± 32.7 (30). The “24 Hour Urine Cortisol Visit Change Values from Baseline” value (cortisol; Day 70, Non-Hypokalemic) was 1045 ± 3500 (30) nmol/24 hr, the “24 Hour Urine Cortisol Visit Values” (cortisol; Day 70, Non-Hypokalemic) was 1696 ± 3387 (30) nmol/24 hr and the “24 Hour Urine Cortisol (nmol/24 hr)/ACTH Ratio Visit Values” (cortisol; Day 112, Hypokalemic) was 30.9 ± 31.0 (9). The “24 Hour Urine Cortisol Visit Change Values from Baseline” value (cortisol; Day 112, Hypokalemic) was 2916 ± 2593 (9) nmol/24 hr, the “24 Hour Urine Cortisol Visit Values” (cortisol; Day 112, Hypokalemic) was 3552 ± 2827 (9) nmol/24 hr and the “24 Hour Urine Cortisol (nmol/24 hr)/ACTH Ratio Visit Values” (cortisol; Day 112, Non-Hypokalemic) was 9.6 ± 16.3 (23). For the same molecule, the “24 Hour Urine Cortisol Visit Change Values from Baseline” value (cortisol; Day 112, Non-Hypokalemic) was 104 ± 5293 (23) nmol/24 hr, the “24 Hour Urine Cortisol Visit Values” (cortisol; Day 112, Non-Hypokalemic) was 1314 ± 3351 (23) nmol/24 hr and the “24 Hour Urine Cortisol (nmol/24 hr)/ACTH Ratio Visit Values” (cortisol; Day 168, Hypokalemic) was 19.3 ± 9.5 (5). For the same molecule, the “24 Hour Urine Cortisol Visit Change Values from Baseline” value (cortisol; Day 168, Hypokalemic) was 4128 ± 6624 (5) nmol/24 hr, the “24 Hour Urine Cortisol Visit Values” (cortisol; Day 168, Hypokalemic) was 5615 ± 5053 (5) nmol/24 hr and the “24 Hour Urine Cortisol (nmol/24 hr)/ACTH Ratio Visit Values” (cortisol; Day 168, Non-Hypokalemic) was 12.4 ± 15.5 (36). The “24 Hour Urine Cortisol Visit Change Values from Baseline” value (cortisol; Day 168, Non-Hypokalemic) was 512 ± 4575 (36) nmol/24 hr, the “24 Hour Urine Cortisol Visit Values” (cortisol; Day 168, Non-Hypokalemic) was 1444 ± 3127 (36) nmol/24 hr and the “24 Hour Urine Cortisol (nmol/24 hr)/ACTH Ratio Visit Values” (cortisol; [2]) was 11.5 ± 7.5 (3). The “24 Hour Urine Cortisol Visit Change Values from Baseline” value (cortisol; [2]) was 2497 ± 3776 (3) nmol/24 hr, the “24 Hour Urine Cortisol Visit Values” (cortisol; [2]) was 5129 ± 6335 (3) nmol/24 hr and the “24 Hour Urine Cortisol (nmol/24 hr)/ACTH Ratio Visit Values” (cortisol; [3]) was 12.5 ± 27.9 (35). The “24 Hour Urine Cortisol Visit Change Values from Baseline” value (cortisol; [3]) was 471 ± 2843 (35) nmol/24 hr, the “24 Hour Urine Cortisol Visit Values” (cortisol; [3]) was 1423 ± 6086 (35) nmol/24 hr and the “Clinically meaningful hypokalemia (≤3.1), subjects” value ([1]; completed Alzheimer's trial) was 4. For the same molecule, the “Hypokalemia in the range of 2.8 to 3.5 mEq/L” value ([1]; out of 33 subjects, 300 mg per day for 16 weeks) was 9 subjects.
